In brackets after ≈: the same amount, converted by molar mass. Like-named read-outs stand apart in the source and are kept apart here.
Tests used:
[1] = tested on: mAb4D11; test: optimized mAb4D11-based dcELISA
Protocol: (§1) The dcELISA procedure was performed as below. First, the plate (Costar, Corning Inc., New York, USA) was coated with coating antigen (100 μL/well in 1 × PBS) for 1 h at 37 °C. Then, the wells were washed four times with PBST (1 × PBS with 0.05% (v/v) Tween-20) and blocked with 2% skim milk (200 μL/well) for 1 h at 37 °C. After washing four times, 50 μL analyte in MeOH-water solution and 50 μL mAb-HRP in PBS were added. The plate was incubated for 1 h at 37 °C and then washed four times before adding TMB solution (100 μL/well). After incubation for 15 min at 37 °C, 50 μL/well of H2SO4 (2 mol/L) was added to stop the reaction, and the absorbance was recorded at 450 nm using the Model 680 plate reader (Bio-Rad, USA).
(§2) 18 kinds of O,O-dimethyl OPs and 6 kinds of O,O-diethyl OPs were purchased from National Standards of China and used for the selectivity and sensitivity study using the optimized dcELISA procedure. […] The IC50 value and detection limit of each OP were calculated. The CR value, which was used to evaluate the selectivity of the method, was calculated using the following equation:

[2] = tested on: mAb3C9; test: mimotope-based dcELISA (mAb3C9 and M20-GST-BAD/SA-HRP competitor); assay type: binding, mouse; details: for CR (%): M20-GST-BAD, (IC50 of parathion-methyl/IC50 of pesticide) × 100
Protocol: To develop a mimotope-based dcELISA, the biotinylated mimotope fusion protein was firstly assembled with streptavidin-HRP conjugate (SA-HRP) utilized the high affinity of biotin and streptavidin. The assembly process was just mixing a certain amount of biotinylated mimotope fusion protein with SA-HRP and incubating them at 4 °C overnight before use as an HRP-labeled competitor.
An innovative mimotope-based dcELISA was developed and performed as below. […] TMB solution (100 μL/well) was added and incubated for 15 min at 37 °C.
The optimal condition for mimotope-based dcELISA was optimized as chemosynthesized antigen-based dcELISA. The selectivity and sensitivity of the developed mimotope-based dcELISA for the 24 OPs were also determined under the optimum condition.

[3] = tested on: mAb3C9; test: optimized chemosynthesized antigen-based dcELISA (mAb3C9 and hapten 6-OVA); details: for CR (%): Hapten 6-OVA, (IC50 of parathion-methyl/IC50 of pesticide) × 100
Protocol: as §1, §2

[4] = ref Hua et al. 11; cited from earlier work
[5] = tested on: mAb against a generic hapten (3-(4-dimethoxyphosphorothioyloxy phenyl)propanoic acid); details: ref Liu et al. 10; cited from earlier work
[6] = ref Liang et al. 9; cited from earlier work
[7] = mAb3C9, coating antigen Hapten 6-OVA

CCOP(=S)(OCC)SCn1nnc2ccccc2c1=O [Azinphos-ethyl]
CR (%) ([1]; mAb4D11-based dcELISA): < 0.3%
IC50 ([1]; mAb4D11-based dcELISA): > 5 µg/mL
CR (%) [2]: 4.7%
LOD (IC10) ([2]; mAb3C9, M20-GST-BAD): 0.0264 µg/mL
IC50 ± SD ([2]; mAb3C9, competitor M20-GST-BAD): 0.1074 ± 0.0032 µg/mL (≈ 0.311 µM)
CR (%) [3]: 4.9%
LOD (IC10) ([3]; mAb3C9, Hapten 6-OVA): 0.0216 µg/mL
IC50 ± SD [3, 7]: 0.0953 ± 0.0042 µg/mL (≈ 0.276 µM)

COP(=S)(OC)SCn1nnc2ccccc2c1=O [Azinphos-methyl]
IC50 [4]: > 100 µg/mL
CR (%) ([1]; mAb4D11-based dcELISA): < 0.3%
IC50 ([1]; mAb4D11-based dcELISA): > 5 µg/mL
CR (%) [2]: 290.8%
LOD (IC10) ([2]; mAb3C9, M20-GST-BAD): 0.0004 µg/mL
IC50 ± SD ([2]; mAb3C9, competitor M20-GST-BAD): 0.0017 ± 0.0001 µg/mL (≈ 0.00536 µM)
CR (%) [3]: 306.6%
LOD (IC10) ([3]; mAb3C9, Hapten 6-OVA): 0.0004 µg/mL
IC50 ± SD [3, 7]: 0.0015 ± 0.0001 µg/mL (≈ 0.00473 µM)

COP(=S)(OC)Oc1cc(Cl)c(Br)cc1Cl [Bromophos-methyl]
CR (%) ([1]; mAb4D11-based dcELISA): 11.6%
IC50 ([1]; mAb4D11-based dcELISA): 0.1246 µg/mL (≈ 0.34 µM)
LOD ([1]; mAb4D11-based dcELISA): 31.4 ng/mL
CR (%) [2]: 6.2%
LOD (IC10) ([2]; mAb3C9, M20-GST-BAD): 0.0194 µg/mL
IC50 ± SD ([2]; mAb3C9, competitor M20-GST-BAD): 0.0822 ± 0.0024 µg/mL (≈ 0.225 µM)
CR (%) [3]: 6.2%
LOD (IC10) ([3]; mAb3C9, Hapten 6-OVA): 0.0195 µg/mL
IC50 ± SD [3, 7]: 0.0755 ± 0.0041 µg/mL (≈ 0.206 µM)

COP(=S)(OC)Oc1nc(Cl)c(Cl)cc1Cl [Chlorpyrifos-methyl]
IC50 [4]: > 100 µg/mL
IC50 [5]: 0.81 µg/mL (≈ 2.51 µM)
CR (%) ([1]; mAb4D11-based dcELISA): 59.4%
IC50 ([1]; mAb4D11-based dcELISA): 0.0244 µg/mL (≈ 0.0757 µM)
LOD ([1]; mAb4D11-based dcELISA): 5.7 ng/mL
CR (%) [2]: 122.8%
LOD (IC10) ([2]; mAb3C9, M20-GST-BAD): 0.0009 µg/mL
IC50 ± SD ([2]; mAb3C9, competitor M20-GST-BAD): 0.0041 ± 0.0002 µg/mL (≈ 0.0127 µM)
CR (%) [3]: 120.7%
LOD (IC10) ([3]; mAb3C9, Hapten 6-OVA): 0.0007 µg/mL
IC50 ± SD [3, 7]: 0.0039 ± 0.0001 µg/mL (≈ 0.0121 µM)

COP(=S)(OC)Oc1ccc(C#N)cc1 [Cyanophos]
IC50 [4]: 0.0203 µg/mL (≈ 0.0835 µM)
CR (%) ([1]; mAb4D11-based dcELISA): 82.5%
IC50 ([1]; mAb4D11-based dcELISA): 0.0176 µg/mL (≈ 0.0724 µM)
LOD ([1]; mAb4D11-based dcELISA): 2.3 ng/mL
CR (%) [2]: 146.2%
LOD (IC10) ([2]; mAb3C9, M20-GST-BAD): 0.0007 µg/mL
IC50 ± SD ([2]; mAb3C9, competitor M20-GST-BAD): 0.0035 ± 0.0001 µg/mL (≈ 0.0144 µM)
CR (%) [3]: 152.8%
LOD (IC10) ([3]; mAb3C9, Hapten 6-OVA): 0.0006 µg/mL
IC50 ± SD [3, 7]: 0.0031 ± 0.0002 µg/mL (≈ 0.0127 µM)

CCOP(=S)(OCC)Oc1cc(C)nc(C(C)C)n1 [Diazinon]
CR (%) ([1]; mAb4D11-based dcELISA): 5.0%
IC50 ([1]; mAb4D11-based dcELISA): 0.2883 µg/mL (≈ 0.947 µM)
LOD ([1]; mAb4D11-based dcELISA): 73.2 ng/mL
CR (%) [2]: 0.2%
LOD (IC10) ([2]; mAb3C9, M20-GST-BAD): 0.4123 µg/mL
IC50 ± SD ([2]; mAb3C9, competitor M20-GST-BAD): 2.0648 ± 0.0417 µg/mL (≈ 6.78 µM)
CR (%) [3]: 0.3%
LOD (IC10) ([3]; mAb3C9, Hapten 6-OVA): 0.3917 µg/mL
IC50 ± SD [3, 7]: 1.8124 ± 0.0461 µg/mL (≈ 5.95 µM)

COP(=O)(OC)OC=C(Cl)Cl [Dichlorvos]
IC50 [4]: > 100 µg/mL
CR (%) ([1]; mAb4D11-based dcELISA): 0.8%
IC50 ([1]; mAb4D11-based dcELISA): 1.8279 µg/mL (≈ 8.27 µM)
LOD ([1]; mAb4D11-based dcELISA): 437.2 ng/mL
CR (%) [2]: 3.5%
LOD (IC10) ([2]; mAb3C9, M20-GST-BAD): 0.0312 µg/mL
IC50 ± SD ([2]; mAb3C9, competitor M20-GST-BAD): 0.1454 ± 0.0038 µg/mL (≈ 0.658 µM)
CR (%) [3]: 3.5%
LOD (IC10) ([3]; mAb3C9, Hapten 6-OVA): 0.024 µg/mL
IC50 ± SD [3, 7]: 0.1321 ± 0.0061 µg/mL (≈ 0.598 µM)

CNC(=O)CSP(=S)(OC)OC [Dimethoate]
CR (%) [1]: < 0.3%
IC50 [1]: > 5 µg/mL
IC50 ± SD [2]: 0.1893 ± 0.0081 µg/mL (≈ 0.826 µM)
LOD (IC10) [2]: 0.0284 µg/mL
CR (%) [2]: 2.7%
IC50 ± SD [3]: 0.1703 ± 0.0073 µg/mL (≈ 0.743 µM)
LOD (IC10) [3]: 0.0184 µg/mL
CR (%) [3]: 2.7%

CCOP(=S)(Oc1ccc([N+](=O)[O-])cc1)c1ccccc1 (stereo not shown) [EPN]
IC50 [4]: 0.0183 µg/mL (≈ 0.0566 µM)

COP(=S)(OC)Oc1ccc(S(=O)(=O)N(C)C)cc1 [Famphur]
IC50 [4]: 58.2157 µg/mL (≈ 179 µM)
CR (%) ([1]; mAb4D11-based dcELISA): 4.2%
IC50 ([1]; mAb4D11-based dcELISA): 0.3464 µg/mL (≈ 1.06 µM)
LOD ([1]; mAb4D11-based dcELISA): 80.3 ng/mL
CR (%) [2]: 339.6%
LOD (IC10) ([2]; mAb3C9, M20-GST-BAD): 0.0004 µg/mL
IC50 ± SD ([2]; mAb3C9, competitor M20-GST-BAD): 0.0015 ± 0.0001 µg/mL (≈ 0.00461 µM)
CR (%) [3]: 347.8%
LOD (IC10) ([3]; mAb3C9, Hapten 6-OVA): 0.0003 µg/mL
IC50 ± SD [3, 7]: 0.0013 ± 0.0001 µg/mL (≈ 0.004 µM)

COP(=S)(OC)Oc1cc(Cl)c(Cl)cc1Cl [Fenchlorphos]
CR (%) ([1]; mAb4D11-based dcELISA): 26.4%
IC50 ([1]; mAb4D11-based dcELISA): 0.055 µg/mL (≈ 0.171 µM)
LOD ([1]; mAb4D11-based dcELISA): 13.3 ng/mL
CR (%) [2]: 10.1%
LOD (IC10) ([2]; mAb3C9, M20-GST-BAD): 0.0093 µg/mL
IC50 ± SD ([2]; mAb3C9, competitor M20-GST-BAD): 0.0501 ± 0.0021 µg/mL (≈ 0.156 µM)
CR (%) [3]: 10.5%
LOD (IC10) ([3]; mAb3C9, Hapten 6-OVA): 0.0074 µg/mL
IC50 ± SD [3, 7]: 0.0443 ± 0.0022 µg/mL (≈ 0.138 µM)

COP(=S)(OC)Oc1ccc([N+](=O)[O-])c(C)c1 [Fenitrothion]
IC50 [4]: 0.0089 µg/mL (≈ 0.0321 µM)
IC50 [5]: 3.54 µg/mL (≈ 12.8 µM)
CR (%) ([1]; mAb4D11-based dcELISA): 180.2%
IC50 ([1]; mAb4D11-based dcELISA): 0.0081 µg/mL (≈ 0.0292 µM)
LOD ([1]; mAb4D11-based dcELISA): 1.2 ng/mL
CR (%) [2]: 104.1%
LOD (IC10) ([2]; mAb3C9, M20-GST-BAD): 0.0012 µg/mL
IC50 ± SD ([2]; mAb3C9, competitor M20-GST-BAD): 0.0049 ± 0.0002 µg/mL (≈ 0.0177 µM)
CR (%) [3]: 107.1%
LOD (IC10) ([3]; mAb3C9, Hapten 6-OVA): 0.0011 µg/mL
IC50 ± SD [3, 7]: 0.0044 ± 0.0003 µg/mL (≈ 0.0159 µM)
IC50 [6]: 0.324 µg/mL (≈ 1.17 µM)

From article PMC5118688 (Scientific Reports, 2016)
